How the values were obtained:
[1] = system: Mus musculus; test: Effect on compound 48/80-induced histamine level in ddY mouse peritoneal cavity fluid assessed as histamine release at 25 mg/kg, ip administered 15 mins before compound 48/80 challenge measured after 10 mins by fluorometric assay relative to control; type: functional; conditions: route intraperitoneal
[2] = system: Mus musculus; test: Effect on compound 48/80-induced histamine level in ddY mouse peritoneal cavity fluid assessed as histamine release at 10 mg/kg, ip administered 15 mins before compound 48/80 challenge measured after 10 mins by fluorometric assay relative to control; type: functional; conditions: route intraperitoneal

SMILES | Activity [1] [%] | Activity [2] [%]
COc1c2ccoc2c(OC[C@@H](OC(C)=O)C(C)(C)O)c2oc(=O)ccc12 | 151 | 93.2
COc1c2ccoc2c(OCC=C(C)C)c2oc(=O)ccc12 [PHELLOPTERIN] | 137.7 | 109.8
CC1(C)O[C@H]1COc1c2ccoc2cc2oc(=O)ccc12 [OXYPEUCEDANIN] | 136.1 | 142.6
CC(C)(O)[C@H](O)COc1c2ccoc2cc2oc(=O)ccc12 [OXYPEUCEDANIN HYDRATE] | 69.1 | 114.8
COc1c2ccoc2cc2oc(=O)ccc12 [BERGAPTEN] | 55.4 | 108.2
COc1c2ccoc2c(OC[C@@H](O)C(C)(C)O)c2oc(=O)ccc12 [BYAKANGELICIN] | 57 | 105.4

From ChEMBL document CHEMBL1145678, “Histamine-release effectors from Angelica dahurica var. dahurica root” (1997)
